Each structure is given as a SMILES string.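 Tested at 5 concentrations; 48 h exposure; 96-well plates; endpoints linearly interpolated, else capped at highest concentration. GI50 = concentration required for 50% inhibition of growth. TGI: total growth inhibition.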

Holding throughout (assay): inhibition of tumour cell growth, NCI panel, 48 h
In experiment [1] the test system is HCT-15 colon.
In experiment [2] the test system is KM12 colon.
The test system of experiment [3] is MCF7 breast.
The test system of experiment [4] is RXF 393 renal.
The test system of experiment [5] is SK-MEL-28 melanoma.
The subject of experiment [6] is T-47D breast.
Experiment [7] relates to UACC-257 melanoma.

For the compound `NC1=C(Cl)C(=O)c2ccc(S(N)(=O)=O)cc2C1=O`, the GI50 in experiment [1] is 0.164 µM; in experiment [2] it was 0.332 µM; in experiment [3], 0.15 µM; in experiment [4] it was 0.286 µM; in experiment [5] it was 0.247 µM; in experiment [6], 0.318 µM. For the same compound, the GI50 in experiment [7] was 0.128 µM. For the same compound, the TGI is 0.339 µM in experiment [1]; 1.06 µM in experiment [2]; 0.346 µM in experiment [3]; 0.903 µM in experiment [4]; 0.565 µM in experiment [5]; 1.2 µM in experiment [6]. Besides, the TGI in experiment [7] amounted to 0.267 µM.

As for `CN(C)CCCN(c1nc(C(Cl)(Cl)Cl)ns1)c1nc(C(Cl)(Cl)Cl)ns1`, the GI50 in experiment [1] is 1.88 µM; in experiment [2] it was 1.8 µM; in experiment [3] it was 1.9 µM; in experiment [4] it was 1.81 µM; in experiment [5], 1.9 µM; in experiment [6] it was 2.98 µM. The GI50 in experiment [7] was 1.8 µM. In addition, the TGI in experiment [1] is 4.08 µM; in experiment [2], 3.44 µM; in experiment [3] it was 3.62 µM; in experiment [4], 3.21 µM; in experiment [5], 3.5 µM; in experiment [6] it was 10.5 µM. In experiment [7], this compound returned a TGI of 3.65 µM.

As to `COc1ccc(-c2cnc3ccnn3c2-c2cc(OC)c(OC)c(OC)c2)cc1`, the GI50 in experiment [1] was 2.12 µM; in experiment [2] it was 1.67 µM; in experiment [3], 3.51 µM; in experiment [4] it was 2.6 µM; in experiment [5] it was 10 µM; in experiment [6], > 100 µM. In experiment [7], the GI50 was 91.6 µM. The TGI in experiment [1], in experiment [2], in experiment [3], in experiment [4], in experiment [5] and in experiment [6] was > 100 µM in each case. Also, in experiment [7], the TGI is > 100 µM.

`c1cc(OCCN2CCCCCC2)ccc1CNc1ccc2nc(CCC3CCCCC3)[nH]c2c1`: the GI50 in experiment [1] was 1.59 µM; in experiment [2], 2.84 µM; in experiment [3] it was 1.72 µM; in experiment [4], 1.53 µM; in experiment [6] it was 1.72 µM; in experiment [7], 1.94 µM. Further, the TGI in experiment [1] came out at 3.67 µM; in experiment [2], 9.07 µM; in experiment [3], 4.12 µM; in experiment [4] it was 4.4 µM; in experiment [6], 4.79 µM; in experiment [7] it was 4.12 µM.

For the compound `Cc1cccc2c(N=Nc3ccc(S(N)(=O)=O)cc3)c(O)[nH]c12`, the GI50 in experiment [1], in experiment [2], in experiment [3], in experiment [4], in experiment [5] and in experiment [6] was > 25 µM each time. Besides, the GI50 in experiment [7] was > 25 µM. Further, the TGI in experiment [1], in experiment [2], in experiment [3], in experiment [4], in experiment [5] and in experiment [6] was > 25 µM throughout. Further, the TGI in experiment [7] was > 25 µM.

Turning to `Oc1ccc(CNCc2ccccc2)c2cccnc12`, the TGI is > 100 µM in experiment [1]; > 100 µM in experiment [2]; > 100 µM in experiment [3]; > 100 µM in experiment [5]; 0.816 µM in experiment [7].

Consider `O=C1/C(=C\C(Cl)=C/c2ccc([N+](=O)[O-])cc2)SC(=S)N1CCc1ccc(O)cc1`, for which the GI50 in experiment [1] is 0.246 µM; in experiment [2] it was 0.312 µM; in experiment [3], 0.365 µM; in experiment [4], 0.472 µM; in experiment [5] it was 0.626 µM; in experiment [6] it was 1.64 µM. The GI50 in experiment [7] was 1.65 µM. The TGI came out at 0.741 µM in experiment [1]; 1.05 µM in experiment [2]; 1.66 µM in experiment [3]; 1.11 µM in experiment [4]; 1.96 µM in experiment [5]; 4.66 µM in experiment [6]. This compound came in with a TGI in experiment [7] of 4.28 µM.

As for `Clc1cc(Cl)c(Cl)c(-c2nc(-c3cccnc3)cs2)c1`, the GI50 was 16 µM in experiment [1]; 51.4 µM in experiment [2]; 10.4 µM in experiment [3]; 10.9 µM in experiment [4]; 12.9 µM in experiment [5]; 12.7 µM in experiment [6]. In addition, the GI50 in experiment [7] was 15.3 µM. Further, the TGI in experiment [1] is 42.5 µM; in experiment [2], > 100 µM; in experiment [3] it was > 100 µM; in experiment [4], 35.2 µM; in experiment [5], 34.8 µM; in experiment [6], 65.4 µM. The TGI in experiment [7] was 64.8 µM.

On to `C=C1C(=O)O[C@@H]2C(=O)[C@@H](C)[C@@H]3C=CC(=O)[C@@]3(C)[C@@H](OC(=O)/C(C)=C\C)[C@H]12`, for which the TGI in experiment [1] turned out to be 2.27 µM; in experiment [2], 8 µM; in experiment [3], 4.93 µM; in experiment [4], 1.47 µM; in experiment [5] it was 1.01 µM; in experiment [6], 1.68 µM. The compound further gave a TGI in experiment [7] of 4.65 µM.

Consider `Cc1cc(O)c(C(c2cccnc2)c2c(O)cc(C)[nH]c2=O)c(=O)[nH]1`, for which the TGI in experiment [1], in experiment [2], in experiment [3], in experiment [4], in experiment [5] and in experiment [6] was > 100 µM throughout. Moreover, the TGI in experiment [7] was > 100 µM.

In the case of `S=c1nc2[nH]ncc2c(N/N=C/c2ccccc2)[nH]1`, the GI50 in experiment [1] was 81.3 µM; in experiment [2], > 100 µM; in experiment [3], 32 µM; in experiment [4] it was > 100 µM; in experiment [5], > 100 µM; in experiment [7], > 100 µM. The TGI is > 100 µM in experiment [1]; > 100 µM in experiment [2]; 47 µM in experiment [3]; > 100 µM in experiment [4]; > 100 µM in experiment [5]; > 100 µM in experiment [7].

Consider `COc1cc(C#N)cc(OC)c1OCCOCCOc1c(OC)cc(C#N)cc1OC`, for which the GI50 in experiment [1] was > 100 µM; in experiment [2], 51.7 µM; in experiment [3], 63.4 µM; in experiment [5] it was > 100 µM; in experiment [6], 21.7 µM; in experiment [7], 99.1 µM. The TGI in experiment [1], in experiment [2], in experiment [3], in experiment [5], in experiment [6] and in experiment [7] was > 100 µM in each case.

Regarding `O=c1cc(-c2ccc(Cl)cc2)[nH]c2ncccc12`, the TGI in experiment [1], in experiment [2], in experiment [3], in experiment [5], in experiment [6] and in experiment [7] was > 100 µM each time.

As for `Cc1ccc(S(=O)(=O)/N=c2\ssc(Nc3ccccc3)c2Cl)cc1`, the GI50 was 11.9 µM in experiment [1], 8.26 µM in experiment [2], 13.6 µM in experiment [4] and 9.86 µM in experiment [7]. In addition, the TGI amounted to 34.4 µM in experiment [1], 20.4 µM in experiment [2], 46.1 µM in experiment [4] and 30.3 µM in experiment [7].

For `COc1ccc(-c2cc(=O)c3c(OC)c(OC)c(OC)c(OC)c3o2)cc1OC`, the TGI in experiment [1] was > 100 µM; in experiment [3], > 100 µM; in experiment [4], > 100 µM; in experiment [5] it was > 100 µM; in experiment [6], 70.6 µM; in experiment [7] it was > 100 µM.

Turning to `CC#CS(=O)(=O)c1ccccc1`, the TGI in experiment [1] stood at 9.4 µM; in experiment [3] it was 40.9 µM; in experiment [4] it was 31.8 µM; in experiment [5] it was 12.6 µM; in experiment [6], 6.22 µM; in experiment [7], 12.1 µM.

`C=C1C(=O)O[C@H]2[C@H]1CC/C(Cn1cc(Cn3ccc4ccccc43)nn1)=C\CC[C@@]1(C)O[C@@H]21`: the GI50 in experiment [1] is 1.3 µM; in experiment [2], 4.21 µM; in experiment [3], 1.3 µM; in experiment [4], 1.41 µM; in experiment [5] it was 1.67 µM; in experiment [7] it was 2.04 µM. The TGI in experiment [1] is 2.77 µM; in experiment [2] it was 15.2 µM; in experiment [3] it was 3.18 µM; in experiment [4] it was 2.82 µM; in experiment [5] it was 3.25 µM; in experiment [7] it was 4.41 µM.

Turning to `C=C1C(=O)O[C@H]2[C@H]1CC/C(COC(=O)CCCCCCCCC(=O)OC/C1=C/CC[C@@]3(C)O[C@H]3[C@H]3OC(=O)C(=C)[C@@H]3CC1)=C\CC[C@@]1(C)O[C@@H]21`, the GI50 is 1.91 µM in experiment [1]; 2.13 µM in experiment [2]; 1.86 µM in experiment [4]; 2.34 µM in experiment [5]; 2.16 µM in experiment [6]; 2.25 µM in experiment [7]. Also, the TGI in experiment [1] came to 4.47 µM; in experiment [2] it was 4.68 µM; in experiment [4], 3.42 µM; in experiment [5], 6.04 µM; in experiment [6], 6.2 µM; in experiment [7], 4.41 µM.

Values taken from PubChem BioAssay (NCI).
